Experiments:
HIV-1 RF = assay: XTT dye reduction combination assay: protection of CEM-SS cells against HIV-1 RF infection, MacSynergy II analysis; assay type: cell-based; conditions: 95% confidence interval
CEM-SS cells = assay: Cytotoxicity of the combinations in the XTT dye reduction assay (mock infected CEM-SS cells)
Method: CEM-SS cells were added at 2×10^4 cells per well into 96-well plates containing 1.5-fold or 2.0-fold dilutions of test compounds, and were subsequently infected with HIV-1 RF at a multiplicity of infection of 0.470 or mock infected with medium only. Six days after infection, 50 μl of XTT (1 mg/ml XTT tetrazolium, […] phenazine methosulfate) were added to the wells and the plate was reincubated for four hours. Viability, as determined by the amount of XTT formazan produced, was quantified spectrophotometrically by absorbance at 450 nm. Optical density values were exported to a MacSynergy™ II (3, University of Michigan, Ann Arbor, Mich.) spreadsheet for subsequent analysis.

[1] = in combination with 4,4-difluoro-1-{(2S,3S)-2-hydroxy-3-[(3-hydroxy-2-methylbenzoyl)amino]-4-phenylbutanoyl}-3,3-dimethyl-N-(2,2,2-trifluoroethyl)-L-prolinamide, six days after infection of CEM-SS cells with HIV-1 RF, triplicate plates
[2] = in combination with 4,4-difluoro-1-{(2S,3S)-2-hydroxy-3-[(3-hydroxy-2-methylbenzoyl)amino]-4-phenylbutanoyl}-3,3-dimethyl-N-(2,2,2-trifluoroethyl)-L-prolinamide
[3] = in combination with (4R)-N-allyl-3-{(2S,3S)-2-hydroxy-3-[(3-hydroxy-2-methylbenzoyl)amino]-4-phenylbutanoyl}-5,5-dimethyl-1,3-thiazolidine-4-carboxamide, mean of two or three independent experiments
[4] = in combination with N-ethyl-4,4-difluoro-1-{(2S,3S)-2-hydroxy-3-[(3-hydroxy-2,5-dimethylbenzoyl)amino]-4-phenylbutanoyl}-3,3-dimethyl-L-prolinamide, six days after infection of CEM-SS cells with HIV-1 RF, triplicate plates
[5] = in combination with N-ethyl-4,4-difluoro-1-{(2S,3S)-2-hydroxy-3-[(3-hydroxy-2,5-dimethylbenzoyl)amino]-4-phenylbutanoyl}-3,3-dimethyl-L-prolinamide

| Compound | Antagonism (volume) (HIV-1 RF; [1]) [μM^2%] | Synergy (volume) (HIV-1 RF; [1]) [μM^2%] | Cytotoxicity (CEM-SS cells; [2]) | Antagonism (volume) (HIV-1 RF; [3]) [μM^2%] | Synergy (volume) (HIV-1 RF; [3]) [μM^2%] | Antagonism (volume) (HIV-1 RF; [4]) [μM^2%] | Synergy (volume) (HIV-1 RF; [4]) [μM^2%] | Cytotoxicity (CEM-SS cells; [5]) |
| --- | --- | --- | --- | --- | --- | --- | --- | --- |
| Cc1cccc(C)c1OCC(=O)N[C@@H](Cc1ccccc1)[C@@H](O)C[C@H](Cc1ccccc1)NC(=O)[C@H](C(C)C)N1CCCNC1=O (relative stereo) [Lopinavir, [1S-[1R*,(R*),3R*,4R*]]—N-[4-[[(2,6-dimethyl-phenoxy)acetyl]amino]-3-hydroxy-5-phenyl-1-(phenylmethyl)pentyl]tetrahydro-alpha-(1-methylethyl)-2-oxo-1(2H)-pyrimidineacetamide] | 0 | 261 | none | – | – | – | – | – |
| Cc1c(O)cccc1C(=O)N[C@@H](CSc1ccccc1)[C@H](O)CN1C[C@H]2CCCC[C@H]2C[C@H]1C(=O)NC(C)(C)C (relative stereo) [Nelfinavir, [3S-[2(2S*, 3S*),3-alpha,4abeta,8abeta]]-N-(1,1-dimethylethyl)decahydro-2-[2-hydroxy-3-[(3-hydroxy-2-methylbenzoyl)amino]-4-(phenylthio)butyl]-3-isoquinolinecarboxamide mono-methanesulfonate] | −0.28 | 653 | none | −13 | 197 | 0 | 229 | none |
| CC(C)c1nc(CN(C)C(=O)N[C@H](C(=O)N[C@@H](Cc2ccccc2)C[C@H](O)[C@H](Cc2ccccc2)NC(=O)OCc2cncs2)C(C)C)cs1 (relative stereo) [Ritonavir, 10-hydroxy-2-methyl-5-(1-methylethyl)-1-[2-(1-methylethyl)-4-thiazolyl]-3,6-dioxo-8,11-bis(phenylmethyl)-2,4,7,12-tetraazatridecan-13-oic acid, 5-thiazolylmethyl ester, [5S-(5R*,8R*,10R*,11R*)]] | – | – | – | −0.77 | 407 | – | – | – |
| O=C1Nc2ccc(Cl)cc2[C@@](C#CC2CC2)(C(F)(F)F)O1 [Efavirenz, (S)-6-chloro-4-(cyclopropylethynyl)-1,4-dihydro-4-(trifluoromethyl)-2H-3,1-benzoxazin-2-one] | – | – | – | −1.1 | 130 | 0 | 78 | none |
| Cc1ccnc2c1NC(=O)c1cccnc1N2C1CC1 [Nevirapine, 11-cyclopropyl-5,11-dihydro-4-methyl-6H-dipyrido[3,2-b:2′,3′-e][1,4]diazepin-6-one] | 0 | 270 | none | 0 | 203 | −2.4 | 153 | insignificant |
| CC(C)OC(=O)OCOP(=O)(CO[C@H](C)Cn1cnc2c(N)ncnc21)OCOC(=O)OC(C)C.O=C(O)/C=C/C(=O)O [Tenofovir, 9-[(R)-2-[[bis[[(isopropoxycarbonyl)oxy]methoxy]phosphinyl]methoxy]propyl]adenine fumarate (1:1)] | −6.0 | 106 | none | 0 | 125 | 0 | 14 | insignificant |
| Cc1cn([C@H]2C[C@H](N=[N+]=[N-])[C@@H](CO)O2)c(=O)[nH]c1=O [Zidovudine, 3′-azido-3′-deoxythymidine] | 0 | 107 | – | −0.88 | 180 | – | – | – |

Reference: patent US20050171038A1, “Therapeutic combinations” (Agouron Pharmaceuticals, Inc., priority 2004, published 2005)
